Results from patent US9718794B2, “Crystalline forms of tyrosine kinase inhibitors and their salts” (Purdue Pharma L.P., priority 2013, dated 2017).

Experiments:
[1] = system: CCI neuropathic pain (mechanical allodynia); assay: Chronic constriction injury (CCI) model of neuropathic pain in rat; type: in vivo; conditions: for observed side effects in dosed CCI-rats: single oral dose
Text: Chronic Constriction Injury (CCI) Model of Neuropathic Pain in Rat. The CCI model is one of the most commonly used mono-neuropathic pain model firstly described in details by Bennett and Xie (Bennett CJ, Xie YK. Pain. 1988;33(1):87-107). It mimics important clinical chronic pain symptoms such as mechanical allodynia and thermal hyperalgesia, Chronic constriction injury of the sciatic nerve was produced by tying four loose ligatures around the left sciatic nerve according to the method of Bennett and. Xie. […] Calibrated von Frey filaments were used to determine the lowest mechanical (tactile) threshold required to evoke a brisk paw withdrawal reflex in the rat hindpaws. Rats were allowed to acclimatize in wire mesh cages for 15-20 min prior to von Frey testing. Assessment of paw withdrawal thresholds (PWTs) using von Frey filaments was undertaken prior to CCI-surgery (pre-surgery baseline on day 0). Before the drug dosing on day 14, the pre-dose baseline was recorded for each rat. […] Drug-naïve CCI-rats (n=4 - 6 per group) were used. The oral (PO) gavage vehicle was either 10% (w/v) Povidone K25 in water for PO dosing, or 18% (w/v) CrosPovidone in water for PO dosing, or 0.5% CMC-Na/0.1% Tween 80in distilled water for PO dosing. The positive control gabapentin was dissolved in the vehicle and orally given at 100 mg/kg (by oral gavage). Test article was dissolved or suspended in the vehicle and orally given at 25, 50, 100 and 150 mg/kg. Each CCI-rat was administered a single oral dose of test article, gabapentin or vehicle control, 2 hours before assessment of PWT.

TrkA (human full length) = biological target: T1, TrkA (human full length) (Homo sapiens, UniProt P04629); assay: PathHunter whole cell functional assay, NGF stimulated TrkA activation (U2OS); type: cell-based; conditions: U2OS PathHunter cells, mean of triplicate; read-out: cellular IC50, NGF stimulated TrkA activation
T1 construct: expressed recombinantly on the intracellular C-terminus of TrkA (human full length); host or cells: U2OS
Text: Compound inhibition in a live, whole cell based functional assay: There are several methods to measure whole length TrkA activation stimulated by its natural ligand or agonist NGF in live cells. For example, the PathHunter Profiling services offered by DiscoveRx (Fremont, Calif.). The PathHunter technology is an adaptation of enzyme fragment complementation that provides a novel, generic functional cell-based assay format for detecting protein-protein interaction. In this cell-based assay approach, with U2OS cell background, a small peptide epitope (PK) is expressed recombinantly on the intracellular C-terminus of TrkA (human full length). This is co-expressed with a larger sequence, termed enzyme acceptor (EA) that is attached to a cytoplasmic protein SHC1 which will interact with TrkA intracellularly. NGF induced activation of TrkA receptor causes either homo- or hetero-dimerization of TrkA resulting in cross-phosphorylation. The SHC1-EA fusion protein then binds the phosphorylated TrkA receptor forcing complementation of the PK and EA fragment. This interaction generates an active beta-galactosidase enzyme, which is detected using a chemiluminescent substrate.

[2] = Accelerated stability test (XRPD and Raman); type: physicochemical; conditions: 1 week
Protocol: X-ray Powder Diffraction (XRPD). Approximately 2 mg of sample was gently compressed on the XRPD zero back ground single obliquely cut silica sample holder. The sample was then loaded into a D/MAX 2200 X-ray powder diffractometer (Rigaku) or a Philips X-Pert MPD diffractometer and analyzed using the following experimental conditions (Tube anode: Cu; Generator tension: 40 kV; Tube current: 40 mA; Wavelength alphal: 1.54056 Å; Wavelength alpha2: 1.5444 Å; Start angle [2 theta]: 5; End angle [2 theta]: 50; and Continuous scan). For suspected novel forms a slightly slower scan speed was used over a range of 4-40°2θ.
Raman spectroscopy. Samples were analyzed by a Nicolet Almega XR Dispersive Raman Microscope for its Raman spectrum using the following conditions (Exposure Time: 1.0 s; Acquisition No: 10; Pinhole Size: 25, 50 or 100 μm; Wavelength range: 2000˜300 cm^−1 (single grating); Laser: He-Ne 780 nm 100% power; Objective: 20×/0.40 or 50×/0.75 (magnifier/numerical aperture number)). Then the measured Raman spectra were corrected by baseline subtraction using the software OMNIC™v7.3.

[3] = system: CFA-induced inflammatory pain; assay: Rat CFA-induced inflammatory pain model; type: in vivo; conditions: 50 μL of 1 mM s.c. into the paw 3 hours after CFA
Protocol: Rat CFA-induced Inflammatory Pain Model. Hyperalgesia was induced by subcutaneously injecting 50 μL of CFA (Sigma-Aldrich, St. Louis, Mo., USA) into the plantar surface of the left hind paw of the rats using a 30-gauge hypodermic needle under sevoflurane anesthesia. The classical signs of inflammation, including edema and redness, for up the last day of tests were recorded. To assess the effect of test article on CFA-induced inflammatory pain, the rats were anesthetized with sevoflurane 3 hours after CFA injection and then injected 50 μL of either 1 mM test article (n=6) or Saline (n=4) subcutaneously (S.C.) into the same site as the CFA injection, using a 30-gauge hypodermic needle under sevoflurane anesthesia, according to published method (Ueda K., et al, J Pharmacol. Sci., 2010; 112(4):438-43). Paw withdrawal latencies (thermal hyperalgesia) are measured before and at […] 2, 4, and 7 days after CFA injection. Mechanical thresholds were also measured in the same way with either Formula 1 compound (n=6) or Saline (n=4) at similar different time points (for example, 1, 3 hour and 3 days). The noxious heat and mechanical thresholds were separately measured in each group of rats. The threshold was measured 3-5 times in each rat and then averaged.

[4] = system: SNL neuropathic pain (mechanical allodynia); assay: Spinal nerve ligation (SNL) mono-neuropathic pain model in rat; type: in vivo; conditions: SNL rats, oral administration
Protocol: Spinal Nerve Ligation (SNL) Mono-Neuropathic Pain Model in Rat. The surgical procedure will be performed according to the method firstly described by Kim and Chung (Kim SH, Chung JM. Pain. 1992;50(3):355-63.). This procedure will result in tactile allodynia in the left hindpaw. […] The dose-reverse anti-allodynia effects of test compound: on day 14 after surgery, rats were treated with test article at one of four doses, vehicle or positive control by oral gavage, and PWT was determined by calibrated von Frey filaments at time points of 0 (right before the drug dosing, Pre-Dose Baseline), 0.5, 1, 2, 4 and 6 hr. The anti-allodynia effects of repeated administration of test article: Administration of test article was started on day 7 after surgery, once a day for 7 days. PWT was determined by calibrated von Frey filaments, 2 hour after test article dosing each day. After 7 days dosing, the measurement were continued, every other day without compound dosing for another 7 days. PWT was determined at the time points as given above.

[5] = Rat pharmacokinetics (IV and PO, plasma); type: in vivo; conditions: male, CD IGS, PO 100 mg/kg, mean
Protocol: Rat Pharmacokinetics. Compound I was dosed to nonfasted male CD IGS rats (weighting 180-250 g, Charles River Laboratories) by single intravenous (IV, n=3/group) or oral gavage (PO, n=4/group, including control rat group for drug-free blood and brain collection) administration at a nominal dose levels of 3 mg/kg (IV) or 5 mg/kg (IV) and 10, 50, 100 mg/kg (PO) respectively. Compound was formulated in either DMSO/Solutol® HS 15/phosphate buffered saline, pH 7.4 (PBS) for both IV and PO dosing, or 10% (w/v) Povidone K12 in water for IV dosing or 10% (w/v) Povidone K25 in water for PO dosing, or 18% (w/v) CrosPovidone in water for PO dosing. An intravenous profile was obtained by taking serial or terminal blood samples at 3, 10, 30, 60, 120, 240, 360, 1440 min post dose. An oral profile was obtained by taking serial or terminal blood samples at 10, 30, 60, 120, 240, 360, 480, 1440 min post dose.
Plasma Sample Collection from Rats. Animals were sedated under general inhalant anesthesia (3% isoflurane) for blood collection by cardiac puncture. […]
Plasma and brain samples were subjected to quantitative analysis by LC-MS/MS using compound-specific mass transitions. […] The concentrations of the test compound in brain (ng/g brain tissue) and in plasma (ng/mL) as well as the ratio of the brain concentration and the plasma concentration at each time point were determined and reported.

T1 sequence (P04629 33-796): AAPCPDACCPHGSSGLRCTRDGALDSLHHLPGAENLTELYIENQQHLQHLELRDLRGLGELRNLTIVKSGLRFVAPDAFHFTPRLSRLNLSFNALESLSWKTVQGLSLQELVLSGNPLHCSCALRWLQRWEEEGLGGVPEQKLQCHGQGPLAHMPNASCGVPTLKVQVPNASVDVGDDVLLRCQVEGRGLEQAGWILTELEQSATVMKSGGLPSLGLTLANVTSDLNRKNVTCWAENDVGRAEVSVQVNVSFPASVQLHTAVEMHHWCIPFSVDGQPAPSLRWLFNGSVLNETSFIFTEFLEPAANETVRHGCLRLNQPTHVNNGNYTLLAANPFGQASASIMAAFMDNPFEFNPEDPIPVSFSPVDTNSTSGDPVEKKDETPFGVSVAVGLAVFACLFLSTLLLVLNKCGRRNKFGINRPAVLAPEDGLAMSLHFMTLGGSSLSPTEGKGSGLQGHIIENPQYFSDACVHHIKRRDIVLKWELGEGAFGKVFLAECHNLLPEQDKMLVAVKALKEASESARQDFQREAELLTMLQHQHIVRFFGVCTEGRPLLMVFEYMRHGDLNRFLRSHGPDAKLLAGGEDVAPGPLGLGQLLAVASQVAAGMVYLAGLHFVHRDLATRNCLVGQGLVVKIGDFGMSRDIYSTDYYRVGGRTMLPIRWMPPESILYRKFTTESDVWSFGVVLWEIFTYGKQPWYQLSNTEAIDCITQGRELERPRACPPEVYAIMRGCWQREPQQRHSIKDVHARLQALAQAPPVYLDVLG

Structure (SMILES)	observed side effects in dosed CCI-rats [1]	IC50 (TrkA (human full length))	effect on mechanical allodynia (FIG. 2) ([1]; CCI rats, single oral dose 25, 50, 100 and 150 mg/kg, PWT 2 hours after dosing)	stability by XRPD and Raman ([2]; 40° C./75% RH)	stability by XRPD and Raman ([2]; 80° C.)	analgesic effect (FIG. 1) [3]	effect on mechanical allodynia [4]	bioavailability [5]
NCC1(CC(=O)O)CCCCC1 [gabapentin, reference compound]	drowsiness or motor incoordination	–	–	–	–	–	–	–
O=C(O)c1ccc(Nc2cc(N3CCN(C4CCCCC4)CC3)c3noc4c3c2C(=O)c2ccccc2-4)cc1 [Compound C]	–	~50 nM	–	–	–	–	–	–
O=C([O-])c1ccc(Nc2cc(N3CCN(C4CCCCC4)CC3)c3noc4c3c2C(=O)c2ccccc2-4)cc1.[Na+] [Compound I, Sodium 4-((3-(4-cyclohexylpiperazin-1-yl)-6-oxo-6H-anthra[1,9-cd]isoxazol-5-yl)amino)benzoate]	no such effect or other abnormality was observed	–	significantly reduced mechanical allodynia	no instability	no instability	efficacious in relieving the pain	significantly reduced mechanical allodynia	~100%
